Assay results reported in patent US20040209907A1, “Formulation and methods for the treatment of thrombocythemia” (priority 2003, published 2004).
Where “and” joins values, the source holds several entries; their conditions need not be identical. Equal values may be shown once. Read-outs that look alike come from different tables or passages of the source.

Assays:
[1] = Permeation of anagrelide from saturated solutions through human epidermis (Franz-type diffusion cells); assay type: in vitro ADME
Method: Saturated Solutions of Anagrelide were Prepared in:
1. 5% lauryl alcohol in isopropyl myristate (LA in IPM)
2. 2% oleic acid in propylene glycol (OA in PG)
3. 0.5% oleic acid in propylene glycol
4. 5% glyceryl monooleate in isopropyl myristate (GMO in IPM)
5. 5% glyceryl laurate in isopropyl myristate (GLA in IPM)
9. Isopropyl myristate (IPM)
11. 5% oleic acid (OA) in propylene glycol (PG)
12. 70:30 (v/v) dimethyl sulfoxide: propylene glycol
An analytical method using HPLC with UV detection was established for anagrelide. Six point calibration curves were generated over the range 0.2-2 μg/ml were generated for each analytical run and the precision confirmed on each occasion by the making at least 7 replicate injections of the highest standard. Details of the equipment and methods used are given below.
Human epidermis was prepared by the heat separation technique (A. M. Kligman and E Christophers, Preparation of isolated sheets of human stratum corneum. Arch Dermatol., vol. 88, 70-73 (1963). Water was heated to 60° C. on a hotplate and the skin was immersed in the water at this temperature for 1 minute. The skin was then removed from the water and the epidermis carefully peeled off using blunt tweezers. Care was taken not to introduce any holes in this process. The epidermal tissue was placed on a filter paper stratum corneum uppermost. The samples were then stored in freezer.
Franz-type horizontal glass diffusion cells were used. The receptor medium was thermostatted at 37° C., to represent body temperature. There will be a temperature gradient across the membrane and applied solution, but this should simulate ‘in use’ conditions. Under these conditions the surface temperature of the skin was 32° C.
The skin samples were thawed overnight before use. The epidermal membranes were cut to size and were placed between the two halves of the cells. High vacuum grease was used to seal the two compartments. The cell was clamped using a metal holder. The receptor arm was closed using glass caps to prevent evaporation. The donor compartment was occluded to prevent any donor solution evaporation
The receptor medium was first introduced and equilibrated for 1 h. 1 mL of the saturated solution with excess drug was applied in the donor compartment. Excess drug was used to ensure there is no depletion of the drug during the course of the experiment. The starting time was taken as the time at which the solutions were applied.
At set sampling points (12, 24, 30, 36 and 48 hours), 200 μL of the receptor phase from each diffusion cell was removed for analysis of the anagrelide and replaced by an equivalent of fresh receptor phase solution pre-thermostatted to 37° C.
For each solution, six replicates were tested. A control (without any formulation applied in the donor compartment) was also examined.

[2] = as above; assay type: in vitro ADME; conditions: for Amt permeated at 24 hours: human epidermis
[3] = Pharmacokinetics in patients with myeloproliferative disease at steady state; conditions: patients N=18, multiple dosing, analyte = label
CD34+ cells = assay: Megakaryocyte number in thrombopoietin-expanded CD34+ cell cultures; assay type: cell-based; conditions: for effect on number of megakaryocytes: day-8 cultures; for number of megakaryocytes: day-12 cultures
Description: Cells were harvested for analysis after 4 or 8 days of the initiation of drug treatment (day-8 and day-12 cultures, respectively). As shown in FIG. 2 in day-8 cultures no effect of anagrelide could be detected.

[4] = Plasma levels of anagrelide and metabolite A after oral, intra-venous and transdermal anagrelide in the mini-pig; assay type: in vivo; conditions: for AUC / Cmax: mini-pig n=3, plasma analyte = label
Method: The plasma level of anagrelide and metabolite A were measured in a mini-pig study following oral, intra-venous and transdermal administration of anagrelide.
The comparative bioavailability of anagrelide following oral administration of 1 mg or the dermal application of a saturated solution to ˜45 cm2 surface area of the back was assessed in three minipigs. Standard AgrylinR capsules (2×0.5 mg) were administered orally to fasted animals, whereas the dermal formulation was a saturated solution of the drug in 5% (v/v) oleic acid in propylene glycol.
Plasma concentrations of anagrelide and its metabolites were determined by a validated LC-MS/MS assay. Pharmacokinetic parameters were calculated by non-compartmental methods using WinNonlin.
Studies in the Mini-Pig (n=3)

[5] = Pharmacokinetics in healthy male volunteers after a single dose of anagrelide; conditions: healthy male volunteers N=38; single 1 mg oral dose of anagrelide; analyte = label
Description: Summary of mean Pharmacokinetic Parameters of Anagrelide in Volunteers after a Single Dose of the Drug

[6] = dog, in vivo
Method: (§1) A study was conducted in a large group of dogs comparing metabolite A with the standard reference inotrope milrinone.

PDE III = PDE III activity of anagrelide and metabolite A; assay type: biochemical
Method: Inhibition of PDE III, which is present in myocardium, causes an increase in both the force and rate of cardiac contractility. These are undesirable side effects for a platelet reducing agent.
The PDE III activity of both anagrelide and metabolite A was evaluated by standard methods.

platelet = assay: Therapeutic platelet lowering action
[7] = Cardiovascular study in dogs comparing metabolite A with milrinone
Method: as §1

[8] = anagrelide Dermal, saturated solution in 5% OA in PG, ~45 cm2, 24 h
[9] = anagrelide Intra-venous 1 mg/propylene glycol

O=C1CN2Cc3c(ccc(Cl)c3Cl)N=C2N1 [Anagrelide]
Amt permeated at 24 hours ([1]; saturated solution in 2% OA in PG): 8.9 μg/cm^2 | Amt permeated at 24 hours ([1]; saturated solution in 5% GLA in IPM): 5.2 μg/cm^2 | Amt permeated at 24 hours ([1]; saturated solution in 5% GMO in IPM): 5.7 μg/cm^2 | Amt permeated at 24 hours ([1]; saturated solution in 5% LA in IPM): 0.5 μg/cm^2 | Amt permeated at 24 hours ([1]; saturated solution in 5% OA in PG): 4.4 μg/cm^2 | Amt permeated at 24 hours ([1]; saturated solution in IPM (isopropyl myristate)): 1.5 μg/cm^2 | Cav from the maximum likely flux rate through human skin ([2]; calculated for transdermal delivery in man): 3 to 4 ng/mL | Amt permeated at 24 hours ([2]; saturated solution in 0.5% OA in PG): 0.5 μg/cm^2 | Amt permeated at 24 hours ([2]; saturated solution in 70:30 DMSO:PG ('gold standard')): 8.4 μg/cm^2 | Amt permeated at 24 hours ([2]; saturated solution in 70:30 DMSO:PG ('gold standard'), listed as anagrelide): 8.41 μg/cm^2 | Amt permeated at 24 hours ([2]; saturated solution in Ethanol): 0.9 μg/cm^2 | Amt permeated at 24 hours ([2]; saturated solution in Formulation 1 (Labrasol, Plurol Oleique, Labrafac Lipophile, propylene glycol)): 2.1 μg/cm^2 | Amt permeated at 24 hours ([2]; saturated solution in Formulation 2 (Labrafil M 1944CS, Labrafac Lipophile, Labrasol, Plurol oleique, water)): 1.5 μg/cm^2 | Amt permeated at 24 hours ([2]; saturated solution in Glycerol): 0.04 μg/cm^2 | Amt permeated at 24 hours ([2]; saturated solution in PG (propylene glycol)): 0.5 μg/cm^2 and 0.54 μg/cm^2 | Amt permeated at 24 hours ([2]; saturated solution in PG (propylene glycol), listed as anagrelide): 0.5 μg/cm^2 | Amt permeated at 24 hours ([2]; saturated solution in Transcutol): 0.0 μg/cm^2 and 0 μg/cm^2 | Amt permeated at 24 hours ([2]; saturated solution in Triacetin): 0.0 μg/cm^2 and 0 μg/cm^2 | AUC0-t ± RE (AUC over dosage interval) [3]: 18.64(5.28) ng · h/mL | Cmax ± RE [3]: 5.31(1.33) ng/mL | Tmax ± RE [3]: 2.00(0.32) hours | t1/2 ± RE [3]: 2.89(0.73) hours | effect on number of megakaryocytes (CD34+ cells; continuous exposure to 4 ng/ml anagrelide (~13 nM)): no effect | number of megakaryocytes (CD34+ cells; continuous exposure to 4 ng/ml anagrelide (~13 nM), p=0.038, n=3): 77±5 % of control | effect on number of megakaryocytes (CD34+ cells; single dose of 40 ng/ml anagrelide (~133 nM)): no effect | number of megakaryocytes (CD34+ cells; single dose of 40 ng/ml anagrelide (~133 nM), p=0.015, n=3): 68±4 % if control | AUC [4, 8]: 10.8 ng·h/mL | Cmax [4, 8]: 0.69 ng/mL | AUC [4, 9]: 50.7 ng·h/mL | Cmax [4, 9]: 87.1 ng/mL | AUC ([4]; anagrelide Oral 1 mg/capsule): 10.3 ng·h/mL | Cmax ([4]; anagrelide Oral 1 mg/capsule): 1.45 ng/mL | decline in concentrations post-peak prior to wash-off at 24 h ([4]; mini-pig, dermal application): 50% | average dermal flux ([4]; mini-pig, dermal saturated solution in 5% oleic acid in propylene glycol, estimated): 197 ng/cm2/h | maximum plasma concentration lower following dermal application versus oral ([4]; mini-pig, dermal versus oral 1 mg): 50% | exposure to anagrelide, dermal versus oral route ([4]; mini-pig, oral 1 mg versus dermal saturated solution): comparable exposure | AUC0-inf ± RSD (%) [5]: 11.1 ± 37.6 ng·h/mL | Cmax ± RSD (%) [5]: 4.99 ± 74.4 ng/mL | Tmax ± RSD (%) [5]: 1.3 ± 53.8 h | t1/2 ± RSD (%) [5]: 1.5 ± 49.8 h

O=C1NC2=Nc3ccc(Cl)c(Cl)c3CN2C1O (stereo not drawn) [Metabolite A]
effect on (+)dP/dt max (a measure of contractility) [6]: well sustained and largely dose-dependent | maximum decrease in mean blood pressure [6]: about 30 mmHg | mean maximum increase in heart rate [6]: ~66 b.p.m. | potency relative to milrinone in decreasing mean blood pressure [6]: 10 × | potency relative to anagrelide as an inhibitor of PDEIII (PDE III; earlier in vitro studies): 40 fold | PDE III potency relative to anagrelide (PDE III; standard methods): 40 × | potency as a cardiovascular agent relative to anagrelide (PDE III; statement): ~40 times | therapeutic platelet lowering action relative to anagrelide (platelet): equipotent

Cc1[nH]c(=O)c(C#N)cc1-c1ccncc1 [milrinone]
effect on (+)dP/dt max (a measure of contractility) [7]: immediate, dose-dependent increases in (+)dP/dt max, but they were not well sustained | maximum decrease in mean blood pressure ([7]; dose-dependent): about 30 mmHg | mean maximum increase in heart rate ([7]; dose-dependent): ~76 b.p.m.
